Measurements from patent US20220202964A1, “HEPARANASE COMPOUNDS AND METHODS OF USE” (University of Florida Research Foundation, Incorporated, priority 2019, published 2022).

Key:
heparanase = biological target: T1, heparanase (Homo sapiens, UniProt Q9Y251); experiment: Activation of compounds by recombinant heparanase (fluorescence response); assay type: biochemical
T1 sequence (Q9Y251 36-543): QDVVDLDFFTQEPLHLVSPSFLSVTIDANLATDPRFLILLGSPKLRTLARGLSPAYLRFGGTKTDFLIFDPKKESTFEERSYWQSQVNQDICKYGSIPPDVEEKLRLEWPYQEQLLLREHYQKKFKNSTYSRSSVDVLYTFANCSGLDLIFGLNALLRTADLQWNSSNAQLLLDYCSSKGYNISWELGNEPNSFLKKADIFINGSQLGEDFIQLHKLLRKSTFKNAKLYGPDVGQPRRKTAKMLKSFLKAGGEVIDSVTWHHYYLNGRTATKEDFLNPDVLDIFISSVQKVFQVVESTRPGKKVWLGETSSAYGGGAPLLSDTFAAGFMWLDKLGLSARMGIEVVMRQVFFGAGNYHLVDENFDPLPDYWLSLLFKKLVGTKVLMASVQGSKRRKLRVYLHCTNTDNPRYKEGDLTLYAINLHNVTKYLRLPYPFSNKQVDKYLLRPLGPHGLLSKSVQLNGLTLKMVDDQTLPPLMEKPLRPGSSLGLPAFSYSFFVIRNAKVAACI
Protocol: To a solution of 20 μL, of 50 μM compound 1 (HADP) and 160 μL 40 mM NaOAc (pH=5.0) was added 20 μL, 0.1 μg/μL heparanase to obtain 5 μM 1 (HADP) with 2 μg heparanase solution. After incubation at 37° C. for 2 h, the reaction solution was transferred to quartz cuvettes to measure absorbance or fluorescence. Absorbance spectrum scan range from 250 nm to 500 nm (1 nm increment). fluorescence spectrum setting: λex=365 nm, Slit Width 2.5 nm. Emission was record from 400 nm to 600 nm, Slit Width 5 nm. Absorption spectra were recorded on Shimadzu UV-2700 UV-VIS Spectrophotometer. Fluorescence spectra were recorded on Fluorolog TAU-3 Spectrofluorometer with a xenon lamp (Jobin Yvon-Spex, Instruments S. A., Inc.)
Fluorescence micro cells was charged with 20 μL, of 50 μM compound 1 (HADP) and 160 μL 40 mM NaOAc (pH=5.0). Then 20 μL, 0.05 μg/μL heparanase was added to the above solution. Fluorescence spectra were recorded from 0 min to 3 h. fluorescence spectrum setting: λex=365 nm, Slit Width 2.5 nm. Emission was record from 400 nm to 600 nm, Slit Width 5 nm.
To a solution of 20 μL, of 50 μM each compound and 160 μL, 40 mM NaOAc (pH=5.0) was added 20 μL, 0.05 μg/μL heparanase to obtain 5 μM each compound with 1 μg heparanase solution in 96-well microplate. Each compound was performed in triplicate. Then the microplate was sealed with sealing film and incubated at 37° C. Fluorescence intensity was recorded on Spectramax M5 Multimode plate reader (Molecular Devices, USA) at each timepoint. λex/em=365 nm/455 nm.
(§1) 5 μM compound 1 (HADP) was incubated with various biological species at the indicated amount/concentration in 96-well microplate. Cysteine (5 mM), Glutathione (5 mM), H2O2 (100 μM), Esterase, Chondroitinase ABC, Hyaluronidase, Lysozyme, β-Glucuronidase, β-Glucosidase (5 μg each) and heparanase (2 μg). For Chondroitinase ABC and Hyaluronidase, 50 μg was also tested. Each sample was performed in triplicates. Then the microplate was sealed with sealing film and incubated at 37° C. for 4 hours. Fluorescence intensity was recorded on Spectramax M5 Multimode plate reader (Molecular Devices, USA). λex/em=365 nm/455 nm.

Hyaluronidase = experiment: Fluorescence response to biological species: hyaluronidase; assay type: biochemical; conditions: 5 μM; hyaluronidase 5 μg (50 μg also tested); 4 h, 37° C.
Protocol: as §1

Chondroitinase ABC = biological target: T2, Chondroitinase ABC (Proteus vulgaris, UniProt P59807); experiment: Fluorescence response to biological species: chondroitinase; assay type: biochemical; conditions: 5 μM; chondroitinase 5 μg (50 μg also tested); 4 h, 37° C.
T2 sequence (P59807 25-1021): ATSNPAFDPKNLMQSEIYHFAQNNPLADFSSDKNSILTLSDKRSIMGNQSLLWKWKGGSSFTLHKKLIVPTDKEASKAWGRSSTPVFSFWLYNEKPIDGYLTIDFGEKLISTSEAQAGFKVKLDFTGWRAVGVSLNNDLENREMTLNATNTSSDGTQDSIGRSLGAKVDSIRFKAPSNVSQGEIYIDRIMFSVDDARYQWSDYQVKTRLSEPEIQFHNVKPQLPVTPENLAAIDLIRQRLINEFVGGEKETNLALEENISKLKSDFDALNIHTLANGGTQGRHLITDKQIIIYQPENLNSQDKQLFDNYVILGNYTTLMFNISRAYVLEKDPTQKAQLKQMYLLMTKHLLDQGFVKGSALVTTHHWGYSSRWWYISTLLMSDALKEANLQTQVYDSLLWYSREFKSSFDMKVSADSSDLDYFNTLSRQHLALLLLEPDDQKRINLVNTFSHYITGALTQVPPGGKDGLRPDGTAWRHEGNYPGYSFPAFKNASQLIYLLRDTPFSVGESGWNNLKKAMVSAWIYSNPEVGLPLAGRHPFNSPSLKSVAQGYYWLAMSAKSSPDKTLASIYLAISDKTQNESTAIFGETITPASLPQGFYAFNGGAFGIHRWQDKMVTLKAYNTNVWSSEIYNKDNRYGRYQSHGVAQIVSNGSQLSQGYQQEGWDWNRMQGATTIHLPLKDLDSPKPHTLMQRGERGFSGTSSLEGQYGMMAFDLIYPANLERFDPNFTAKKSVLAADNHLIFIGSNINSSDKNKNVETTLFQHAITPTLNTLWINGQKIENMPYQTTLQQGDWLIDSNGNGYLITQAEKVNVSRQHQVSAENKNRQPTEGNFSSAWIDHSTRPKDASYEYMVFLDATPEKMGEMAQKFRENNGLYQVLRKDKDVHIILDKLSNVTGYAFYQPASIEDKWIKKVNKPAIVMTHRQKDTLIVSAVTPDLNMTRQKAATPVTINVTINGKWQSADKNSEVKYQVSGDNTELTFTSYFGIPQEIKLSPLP
Protocol: as §1

[1] = pH profile of fluorescence / pKa; assay type: physicochemical; conditions: pH range from 1 to 13
Protocol: So, pH profiles of the fluorophore DiFMU and Compound 1 (HADP) were evaluated. […] In contrast, the pKa of 4-methylumbelliferone is ca. 7.8. […] Moreover, the introduction of the fluorine substituents increased the quantum yield and improved the photostability, enabling highly sensitive detection for heparanase.

Cc1cc(=O)oc2c(F)c(O[C@@H]3O[C@H](C(=O)O)[C@@H](O[C@H]4O[C@H](CO)[C@@H](O)[C@H](O)[C@H]4NS(=O)(=O)O)[C@H](O)[C@H]3O)c(F)cc12 [Compound 1]
fluorescence response towards heparanase (heparanase; 5 μM compound, 1 μg heparanase, 40 mM NaOAc buffer (pH 5.0), 37° C., λex/em=365 nm/455 nm): significant fluorescence enhancement
fluorescence enhancement turn-on ratio at 450 nm (heparanase; 5 μM, heparanase 2 μg (0.01 μgμl-1), after 2 hours, NaOAc pH 5.0): up to 756 fold
fluorescence off-on response to heparanase in selectivity panel (heparanase; 5 μM, heparanase 2 μg, 4 h, 37° C.): largest “off-on” response
time at which fluorescence reached a plateau (heparanase; HADP 5 μM, heparanase 1 μg): 2.5 h
time at which the enzymatic reaction was completed after addition of heparanase (heparanase; heparanase 2 μg, 5 μM probe): 40 min
fluorescence change (Hyaluronidase): did not afford obvious fluorescence change
fluorescence change (Chondroitinase ABC): did not afford obvious fluorescence change
fluorescence change at 455 nm over pH [1]: no remarkable fluorescence change
